What was measured:
[1] = molecular target: T1, rTRPA1 (Rattus norvegicus, UniProt Q6RI86); assay: Whole-cell patch-clamp, HEK293 cells expressing rTRPA1; format: cell-based; conditions: 30 μM, calcium-free external solution
T1 construct: expressed in transfected cells; host or cells: HEK293, transient
Protocol: (§1) Human embryonic kidney 293 (HEK293) cells were cultured in DMEM containing 10% (vol/vol) heat-inactivated fetal bovine serum, 100 units ml^−1 penicillin–streptomycin and 2 mM L-glutamine at 37 °C in a humidity-controlled sterile incubator with 5% CO2. All cell culture reagents were purchased from Life Technologies. HEK293 cells were transfected transiently with the corresponding plasmids using lipofectamine 2000 (Life Technologies). Transfection efficiency was monitored by co-transfecting EGFP plasmid which codes for the enhanced green fluorescent protein. Electrophysiological recordings were performed between 24 and 36 h after transfection.
(§2) Whole-cell patch-clamp recordings in DRG neurons (small diameter, […]) and HEK293 cells were operated at room temperature (23–25 °C) using EPC-10 amplifier and Patch Master Software (HEKA). […] Currents were sampled at 10 kHz and low-pass filtered at 2.9 kHz. The internal solution was as follows (in mM): 140 CsCl, 10 HEPES, 5 EGTA, 0.1 CaCl2 and 1 MgCl2, with pH adjusted to 7.2 by CsOH and osmolarity 295–300 mOsm. The calcium-free external solution contained (in mM) 140 NaCl, 5 KCl, 0.5 EGTA, 1 MgCl2, 10 Glucose and 10 HEPES, with pH adjusted to 7.4 by NaOH and osmolarity 300–310 mOsm. The 0.5 mM EGTA was replaced by 2 mM CaCl2 for the recordings in DRG neurons. TRPA1 currents development was monitored with repetitive injections of 300 ms duration voltage ramps from −100 to +100 mV every 2 s and the holding potential was set to 0 mV for 50 ms, existing in both sides of the voltage ramp. To record inward currents in DRG neurons, we conducted voltage clamp at holding membrane potential of −70 mV. Solutions were switched using a gravity-fed continuous focal perfusion system.

[2] = molecular target: mTRPA1 (Mus musculus, UniProt Q8BLA8); assay: Whole-cell patch-clamp, HEK293 cells expressing mTRPA1; format: cell-based; parameters: expressed in transfected cells; host or cells: HEK293; conditions: 30 μM, calcium-free external solution
Protocol: as §1, §2

[3] = test system: hens; assay: Transmission electron microscopy of hen spinal cord and sciatic nerve; format: in vivo; conditions: 21 days after exposure
Protocol: For hens, the animals were anesthetized with sodium pentobarbital (100 mg kg^−1) and killed 21 days after exposure to TOCP and malathion. They were then perfused with normal saline followed immediately by 4% paraformaldehyde. The lumbar spinal cord at approximately the L2-L3 level and the sciatic nerve of the left leg were removed and fixed by immersion in ice-cold 2.5% glutaraldehyde. Subsequently, the samples were post-fixed in 1% OsO4 for 1 h, dehydrated with the ethanol series, and embedded in epon resin. Sixty-nanometer ultra-thin sections were double stained with lead citrate and uranyl acetate and examined with an electron microscopy.

[4] = molecular target: T2, cTRPA1 (Gallus gallus, UniProt W8VTH6); assay: Whole-cell patch-clamp, HEK293 cells expressing cTRPA1; format: cell-based, chicken
T2 sequence (W8VTH6 1-1126): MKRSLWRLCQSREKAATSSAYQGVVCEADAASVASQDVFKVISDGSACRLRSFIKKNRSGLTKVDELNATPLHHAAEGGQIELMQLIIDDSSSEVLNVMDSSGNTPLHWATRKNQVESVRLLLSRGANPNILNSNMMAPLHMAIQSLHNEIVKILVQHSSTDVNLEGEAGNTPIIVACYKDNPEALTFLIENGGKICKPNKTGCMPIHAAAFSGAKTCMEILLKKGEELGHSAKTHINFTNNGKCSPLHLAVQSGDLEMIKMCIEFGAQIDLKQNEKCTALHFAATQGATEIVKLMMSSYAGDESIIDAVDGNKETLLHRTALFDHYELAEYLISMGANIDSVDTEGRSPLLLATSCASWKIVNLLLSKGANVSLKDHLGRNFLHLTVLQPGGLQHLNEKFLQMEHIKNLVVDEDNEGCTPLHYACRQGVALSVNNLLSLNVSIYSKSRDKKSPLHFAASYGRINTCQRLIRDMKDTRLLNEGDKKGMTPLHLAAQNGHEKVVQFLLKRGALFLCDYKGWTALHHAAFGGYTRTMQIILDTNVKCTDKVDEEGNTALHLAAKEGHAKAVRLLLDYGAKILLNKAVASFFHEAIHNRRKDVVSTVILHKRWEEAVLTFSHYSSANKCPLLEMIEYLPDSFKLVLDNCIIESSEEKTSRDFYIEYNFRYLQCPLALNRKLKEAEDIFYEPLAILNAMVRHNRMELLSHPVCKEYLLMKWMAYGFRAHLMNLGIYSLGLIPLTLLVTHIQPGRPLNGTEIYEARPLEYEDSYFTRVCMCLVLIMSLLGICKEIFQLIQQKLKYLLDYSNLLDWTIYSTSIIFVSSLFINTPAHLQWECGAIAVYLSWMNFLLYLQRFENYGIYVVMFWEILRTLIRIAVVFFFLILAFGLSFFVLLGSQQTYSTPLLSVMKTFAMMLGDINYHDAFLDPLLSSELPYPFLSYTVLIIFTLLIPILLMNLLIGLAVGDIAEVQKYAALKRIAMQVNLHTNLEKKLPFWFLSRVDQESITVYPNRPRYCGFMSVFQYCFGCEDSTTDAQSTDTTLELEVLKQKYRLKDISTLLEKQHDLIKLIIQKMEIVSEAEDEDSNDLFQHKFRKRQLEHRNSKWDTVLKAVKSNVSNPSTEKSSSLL
Protocol: All cell culture reagents were purchased from Life Technologies. HEK293 cells were transfected transiently with the corresponding plasmids using lipofectamine 2000 (Life Technologies). Transfection efficiency was monitored by co-transfecting EGFP plasmid which codes for the enhanced green fluorescent protein. Electrophysiological recordings were performed between 24 and 36 h after transfection.
as §2, with “The internal solution was as follows (in mM): 140 CsCl, 10 HEPES, 5 EGTA, 0.1 CaCl2 and 1 MgCl2, with pH adjusted to 7.2 by CsOH and osmolarity 295–300 mOsm.” left out

[5] = test system: hens; format: in vivo, hen; conditions: hens, TOCP single dose 750 mg kg−1, end of the 21-day period
Protocol: The chosen adult Hyline Brown hens were raised individually in stainless steel wire cages. After 7 days of acclimatization, the chosen hens were randomly divided into groups (n=6–10 for each group). The hens in the delayed neuropathy groups were administered a single dose of 750 mg kg^−1 TOCP and repeated doses of 75 mg kg^−1 malathion by gavage. TOCP and malathion were dissolved in corn oil and administered at 0.65 ml kg^−1. In the HC030031 treatment groups, 100 mg kg^−1 HC030031 was administered by gavage daily beginning at day 0 or day 11. All hens were examined daily for signs of delayed neurotoxicity. A five-point graded scale was used to describe the clinical symptoms of delayed neuropathy, with 0 indicating normal ambulation; (1) suspected ataxia (lack of strength in the legs and tottering); (2) mild ataxia (slow, clumsy and unsteady gait); (3) gross ataxia (waddling gait and staggering and falling despite being active); (4) mild paralysis (typical paralytic posture and lame appearance); and (5) complete paralysis (unable to maintain posture, stand up or move at all), as described previously.

[6] = molecular target: T3, hTRPA1 (Homo sapiens, UniProt O75762); assay: cell-based; format: cell-based; conditions: 30 μM, calcium-free external solution
T3 construct: expressed in transfected cells; host or cells: HEK293, transient, EGFP plasmid co-transfected
Protocol: as §1, §2

[7] = test system: hTRPA1 carrying single mutations (C414A, C421A, C621A, C641A, C665A or K710R); assay: Whole-cell patch-clamp of mutant hTRPA1 channels; format: cell-based, human; conditions: 30 μM flufenamic acid
Protocol: as §1
Whole-cell patch-clamp recordings in DRG neurons (small diameter, […]) and HEK293 cells were operated at room temperature (23–25 °C) using EPC-10 amplifier and Patch Master Software (HEKA). […] Currents were sampled at 10 kHz and low-pass filtered at 2.9 kHz. The internal solution was as follows (in mM): 140 CsCl, 10 HEPES, 5 EGTA, 0.1 CaCl2 and 1 MgCl2, with pH adjusted to 7.2 by CsOH and osmolarity 295–300 mOsm. […] TRPA1 currents development was monitored with repetitive injections of 300 ms duration voltage ramps from −100 to +100 mV every 2 s and the holding potential was set to 0 mV for 50 ms, existing in both sides of the voltage ramp. […]

T1 sequence (Q6RI86 whole entry): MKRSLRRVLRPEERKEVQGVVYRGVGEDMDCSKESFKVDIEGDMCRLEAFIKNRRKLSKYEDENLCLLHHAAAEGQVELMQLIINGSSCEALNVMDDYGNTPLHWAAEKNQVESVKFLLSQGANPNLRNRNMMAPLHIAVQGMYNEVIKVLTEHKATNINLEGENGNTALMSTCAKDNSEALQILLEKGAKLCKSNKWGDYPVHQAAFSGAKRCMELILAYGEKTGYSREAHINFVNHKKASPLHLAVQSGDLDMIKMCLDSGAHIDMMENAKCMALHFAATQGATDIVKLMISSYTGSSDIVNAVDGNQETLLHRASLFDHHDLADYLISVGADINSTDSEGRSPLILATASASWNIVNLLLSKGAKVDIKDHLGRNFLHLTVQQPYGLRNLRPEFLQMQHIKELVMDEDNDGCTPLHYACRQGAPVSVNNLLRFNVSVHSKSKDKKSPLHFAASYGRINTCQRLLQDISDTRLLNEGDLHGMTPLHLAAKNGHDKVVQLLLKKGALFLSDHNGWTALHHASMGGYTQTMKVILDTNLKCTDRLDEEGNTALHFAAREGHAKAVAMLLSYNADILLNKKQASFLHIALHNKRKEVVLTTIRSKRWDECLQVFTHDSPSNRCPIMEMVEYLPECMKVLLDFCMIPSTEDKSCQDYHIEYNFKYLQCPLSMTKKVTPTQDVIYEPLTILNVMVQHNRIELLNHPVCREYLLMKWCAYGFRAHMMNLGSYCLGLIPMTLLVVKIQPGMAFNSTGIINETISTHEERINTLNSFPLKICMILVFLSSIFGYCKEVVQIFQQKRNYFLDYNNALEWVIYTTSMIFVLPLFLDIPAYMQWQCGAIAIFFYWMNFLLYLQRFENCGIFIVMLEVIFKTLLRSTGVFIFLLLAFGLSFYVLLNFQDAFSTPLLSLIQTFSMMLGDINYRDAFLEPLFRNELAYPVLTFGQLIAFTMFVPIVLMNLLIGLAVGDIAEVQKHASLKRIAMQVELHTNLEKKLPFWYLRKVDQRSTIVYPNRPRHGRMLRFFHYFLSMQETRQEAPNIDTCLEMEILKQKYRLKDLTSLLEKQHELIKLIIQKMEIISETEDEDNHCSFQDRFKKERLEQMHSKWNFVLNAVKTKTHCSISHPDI
T3 sequence (O75762 whole entry): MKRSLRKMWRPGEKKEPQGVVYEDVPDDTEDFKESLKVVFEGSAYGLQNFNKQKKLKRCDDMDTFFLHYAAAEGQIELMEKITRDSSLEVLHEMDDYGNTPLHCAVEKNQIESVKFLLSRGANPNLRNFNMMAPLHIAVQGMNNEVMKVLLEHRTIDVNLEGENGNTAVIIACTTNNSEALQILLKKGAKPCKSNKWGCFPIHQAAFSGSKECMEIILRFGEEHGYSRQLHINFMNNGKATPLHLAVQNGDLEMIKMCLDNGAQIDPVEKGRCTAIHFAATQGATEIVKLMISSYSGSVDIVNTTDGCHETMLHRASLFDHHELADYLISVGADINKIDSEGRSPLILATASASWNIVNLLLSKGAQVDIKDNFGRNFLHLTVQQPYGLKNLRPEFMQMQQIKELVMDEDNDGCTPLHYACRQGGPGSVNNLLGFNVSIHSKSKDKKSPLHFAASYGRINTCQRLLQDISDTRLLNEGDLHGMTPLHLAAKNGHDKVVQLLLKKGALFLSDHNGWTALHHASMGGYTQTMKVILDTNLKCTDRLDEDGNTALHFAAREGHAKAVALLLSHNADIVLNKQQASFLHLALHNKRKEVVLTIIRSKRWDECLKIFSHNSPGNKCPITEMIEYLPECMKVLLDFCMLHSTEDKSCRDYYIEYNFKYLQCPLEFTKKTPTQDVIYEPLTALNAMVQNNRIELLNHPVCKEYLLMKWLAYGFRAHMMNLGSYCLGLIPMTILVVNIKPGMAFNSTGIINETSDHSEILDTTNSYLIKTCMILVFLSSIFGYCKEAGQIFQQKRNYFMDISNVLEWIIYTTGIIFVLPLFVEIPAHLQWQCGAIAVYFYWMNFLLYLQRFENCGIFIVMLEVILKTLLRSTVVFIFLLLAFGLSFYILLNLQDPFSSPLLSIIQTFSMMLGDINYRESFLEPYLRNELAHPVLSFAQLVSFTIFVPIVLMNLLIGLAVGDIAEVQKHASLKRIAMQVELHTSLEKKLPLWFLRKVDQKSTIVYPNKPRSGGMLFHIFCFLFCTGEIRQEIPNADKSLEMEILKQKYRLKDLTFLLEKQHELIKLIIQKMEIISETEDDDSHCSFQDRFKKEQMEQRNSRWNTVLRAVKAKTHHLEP
Sequence of mTRPA1 (Q8BLA8 whole entry): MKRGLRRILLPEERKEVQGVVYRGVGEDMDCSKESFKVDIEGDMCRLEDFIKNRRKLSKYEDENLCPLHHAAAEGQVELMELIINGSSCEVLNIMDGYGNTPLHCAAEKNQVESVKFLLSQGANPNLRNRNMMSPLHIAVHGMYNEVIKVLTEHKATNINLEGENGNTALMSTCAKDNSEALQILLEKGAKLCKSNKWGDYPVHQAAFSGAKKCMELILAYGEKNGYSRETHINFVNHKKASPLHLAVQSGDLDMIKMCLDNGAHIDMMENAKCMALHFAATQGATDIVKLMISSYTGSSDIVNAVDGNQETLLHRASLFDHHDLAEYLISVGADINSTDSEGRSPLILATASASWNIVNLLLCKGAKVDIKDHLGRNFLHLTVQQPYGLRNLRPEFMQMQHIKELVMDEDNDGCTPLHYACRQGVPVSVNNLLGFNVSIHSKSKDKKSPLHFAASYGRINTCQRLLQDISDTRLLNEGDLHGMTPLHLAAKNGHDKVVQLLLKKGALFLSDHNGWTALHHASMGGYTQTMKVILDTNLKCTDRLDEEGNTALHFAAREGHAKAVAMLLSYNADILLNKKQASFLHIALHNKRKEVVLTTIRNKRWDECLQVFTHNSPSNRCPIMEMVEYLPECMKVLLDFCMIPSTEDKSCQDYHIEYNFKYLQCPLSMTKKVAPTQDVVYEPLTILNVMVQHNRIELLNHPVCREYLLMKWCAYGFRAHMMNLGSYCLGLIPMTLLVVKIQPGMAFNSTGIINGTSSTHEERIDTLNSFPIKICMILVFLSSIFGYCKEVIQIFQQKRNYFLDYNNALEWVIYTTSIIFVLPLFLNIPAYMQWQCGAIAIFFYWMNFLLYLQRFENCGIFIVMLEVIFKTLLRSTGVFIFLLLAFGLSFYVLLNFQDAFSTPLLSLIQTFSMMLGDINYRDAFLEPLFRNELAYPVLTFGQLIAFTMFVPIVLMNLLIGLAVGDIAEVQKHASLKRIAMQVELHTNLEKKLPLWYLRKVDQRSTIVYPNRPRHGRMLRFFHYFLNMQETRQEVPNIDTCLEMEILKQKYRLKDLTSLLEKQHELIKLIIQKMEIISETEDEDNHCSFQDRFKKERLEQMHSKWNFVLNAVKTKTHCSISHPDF

Compound	activation of rTRPA1 whole-cell currents [1]	activation of mTRPA1 whole-cell currents [2]	damage of spinal cord and sciatic nerve (TEM) [3]	EC50 [4] [µM]	activation of cTRPA1 whole-cell currents ([4]; calcium-free external solution)	clinical symptoms of delayed neuropathy [5]	activation of hTRPA1 whole-cell currents [6]	role of the mutated residues (except C414) for activation of TRPA1 [7]
Cc1ccccc1OP(=O)(Oc1ccccc1C)Oc1ccccc1C [TOCP, tri-ortho-cresyl phosphate]	effectively activate	effectively activate	severely damaged the spinal cord and sciatic nerve	15.8 ± 1.37	effectively activate	completely paralyzed	effectively activate	
O=C(O)c1ccccc1Nc1cccc(C(F)(F)F)c1 [flufenamic acid]								not essential

— PMC5537602, “TRPA1 channel mediates organophosphate-induced delayed neuropathy” (Cell Discovery, 2017)
